Laboratory results from patent publication US9883997B2, “Cosmetic compositions with tricyclodecane amides” (Conopco, Inc., priority 2013, dated 2018).
Where two headings read alike, the source gives them in different places. Values belong to the molecule of their own block, whether it stands above or below them.

Assays:
[1] = Precursor cosmetic compositions evaluated for crystals content, i.e. solubility of solid agent in the liquid agent (Example 29); type: physicochemical
Procedure: The following precursor cosmetic compositions were prepared and evaluated for crystals content, i.e. solubility of solid agent in the liquid agent.
The composition is heated to a temperature above the melting point of the highest melting compound, then allowed to cool to room temperature. […] In the case of end use cosmetic compositions visualization of the crystals of solid agent was done by comparing a sample with and without tricyclodecane amide and observing the formation of crystals, if any, under the optical microscope fitted with cross-polarizers at a magnification of 10× or higher.

[2] = cited from earlier work
[3] = 2-HEU (16.6%) in OMC (50%), [S]/[L] 0.3, amide (33.3%), 24 hours
[4] = Cholesterol (16.6%) in OMC (50%), [S]/[L] 0.3, amide or comparator (33.3%), 24 hours
[5] = Climbazole (28.5%) in OMC (42.8%), [S]/[L] 0.7, amide (28.5%), 24 hours
[6] = Climbazole (28.5%) in Pelemol GTIS (42.8%), [S]/[L] 0.7, amide (28.5%), 24 hours
[7] = Niacinamide (10%) in Glucam P-20 (55%), [S]/[L] 0.2, amide (35%), 24 hours
[8] = liquid cosmetic agents, Table 2
[9] = 12HSA (16.6%) in OMC (50%), [S]/[L] 0.3, amide or comparator (33%), 24 hours
[10] = Cholesterol (18%) in retinol proprionate (50%), [S]/[L] 0.4, amide or comparator (32%), observation at 12 hours
[11] = retinyl palmitate (28.5%) in OMC (42.8%), [S]/[L] 0.7, amide or comparator (28.5%), 24 hours
[12] = Niacinamide (9.1%) in PPG425 (54.5%), [S]/[L] 0.2, amide (36.4%), observation at 12 hours

Molecule: CCCCC(CC)COC(=O)C(C#N)=C(c1ccccc1)c1ccccc1 (stereo not shown) [octocrylene]
Log Po/w [2, 8]: 6.89

Molecule: O=C(O)CO [Glycolic acid]
Log Po/w ([2]; solid cosmetic agents, Table 1): −1.2

Molecule: CC(C)CCCCCCCCCCCCCCC(=O)OC(C)C [isopropyl isostearate]
Log Po/w [2, 8]: 9.14

Molecule: CC(O)CO (stereo not shown) [Propylene glycol]
Log P ([2]; liquid agent named in Table 3): P~−1.3)

Molecule: CC1CCCN(C(=O)C23CC4CC(CC(C4)C2)C3)C1 (stereo not shown) [Compound C14, Methanone, (3-methyl-1-piperidinyl)tricyclo[3.3.1.1^3,7]dec-1-yl-]
Appearance after cooling - observation at 24 hours, except as noted [1, 3]: clear liquid | Appearance after cooling - observation at 24 hours, except as noted ([1]; 2-HEU (42%) in OMC (33%), [S]/[L] 1.3, amide (25%), 24 hours): crystal + liquid | Appearance after cooling - observation at 24 hours, except as noted [1, 9]: translucent gel | Appearance after cooling - observation at 24 hours, except as noted ([1]; 12HSA (16.6%) in Pelemol TISC (50%), [S]/[L] 0.3, amide (33%), 24 hours): translucent gel | Appearance after cooling - observation at 24 hours, except as noted ([1]; Avobenzone (28.5%) in Propylene glycol (42.8%), [S]/[L] 0.7, amide (28.5%), 24 hours): Crystal + liquid | Appearance after cooling - observation at 24 hours, except as noted ([1]; Cholesterol (10%) in conjugated linoleic acid (45%), [S]/[L] 0.2, amide (45%), 24 hours): clear liquid | Appearance after cooling - observation at 24 hours, except as noted [1, 4]: Clear liquid | Appearance after cooling - observation at 24 hours, except as noted [1, 10]: clear liquid | Appearance after cooling - observation at 24 hours, except as noted ([1]; Cholesterol (35%) in OMC (32%), [S]/[L] 1.1, amide (33%), 24 hours): crystal + liquid | Appearance after cooling - observation at 24 hours, except as noted ([1]; Cholesterol (40%) in conjugated linoleic acid (30%), [S]/[L] 1.3, amide (30%), 24 hours): crystals + liquid | Appearance after cooling - observation at 24 hours, except as noted ([1]; Cholesterol (45%) in retinol proprionate (35%), [S]/[L] 1.3, amide (20%), observation at 12 hours): opaque solid | Appearance after cooling - observation at 24 hours, except as noted [1, 5]: clear liquid | Appearance after cooling - observation at 24 hours, except as noted ([1]; Climbazole (28.5%) in PPG425 (42.8%), [S]/[L] 0.7, amide (28.5%), 24 hours): clear liquid | Appearance after cooling - observation at 24 hours, except as noted [1, 6]: clear liquid | Appearance after cooling - observation at 24 hours, except as noted ([1]; Climbazole (45%) in PPG425 (35%), [S]/[L] 1.3, amide (20%), 24 hours): crystals + liquid | Appearance after cooling - observation at 24 hours, except as noted ([1]; Climbazole (50%) in Pelemol GTIS (25%), [S]/[L] 2, amide (25%), 24 hours): crystal + liquid | Appearance after cooling - observation at 24 hours, except as noted ([1]; Climbazole (55%) in OMC (22.5%), [S]/[L] 2.4, amide (22.5%), 24 hours): crystal + liquid | Appearance after cooling - observation at 24 hours, except as noted ([1]; Methyl Paraben (40%) in PPG-425 (40%), [S]/[L] 1, amide (20%), 24 hours): clear liquid | Appearance after cooling - observation at 24 hours, except as noted ([1]; Methyl Paraben (60%) in PPG-425 (25%), [S]/[L] 2, amide (15%), 24 hours): crystal + liquid | Appearance after cooling - observation at 24 hours, except as noted [1, 12]: clear liquid | Appearance after cooling - observation at 24 hours, except as noted [1, 7]: clear liquid | Appearance after cooling - observation at 24 hours, except as noted ([1]; Niacinamide (35%) in Glucam P-20 (25%), [S]/[L] 1.4, amide (40%), 24 hours): crystal + liquid | Appearance after cooling - observation at 24 hours, except as noted ([1]; Niacinamide (35%) in PPG425 (32.5%), [S]/[L] 1.1, amide (32.5%), observation at 12 hours): opaque solid | Appearance after cooling - observation at 24 hours, except as noted ([1]; Salicylic acid (15%) in conjugated linoleic acid (35%), [S]/[L] .4, amide (50%), 24 hours): clear liquid | Appearance after cooling - observation at 24 hours, except as noted ([1]; Salicylic acid (18%) in OMC (50%), [S]/[L] 0.4, amide (32%), 24 hours): clear liquid | Appearance after cooling - observation at 24 hours, except as noted ([1]; Salicylic acid (42%) in conjugated linoleic acid (33%), [S]/[L] 1.3, amide (25%), 24 hours): opaque solid | Appearance after cooling - observation at 24 hours, except as noted ([1]; Salicylic acid (60%) in OMC (25%), [S]/[L] 2.4, amide (15%), 24 hours): crystal + liquid | Appearance after cooling - observation at 24 hours, except as noted [1, 11]: clear liquid

Molecule: CCCCCCCCCCCCCC(=O)OC(C)C [Isopropyl myristate]
Log Po/w [2, 8]: 7.25

Molecule: CCCCC(CC)COC(=O)C=Cc1ccc(OC)cc1 (stereo not shown) [Octylmethoxycinnamate]
Log Po/w [2, 8]: 5.92

Molecule: Conjugated linoleic acid
Log Po/w [2, 8]: >6

Molecule: Oc1cc(Cl)ccc1Oc1ccc(Cl)cc1Cl [Triclosan]
Log Po/w ([2]; solid cosmetic agents, Table 1): 5.34

Further lines, with some results ahead:

Appearance after cooling - observation at 24 hours, except as noted [1, 3]: Translucent gel | Appearance after cooling - observation at 24 hours, except as noted ([1]; Avobenzone (28%) in OMC (40%), [S]/[L] 0.7, amide (32%), 24 hours): Clear liquid | Appearance after cooling - observation at 24 hours, except as noted ([1]; Avobenzone (45%) in OMC (27.5%), [S]/[L] 1.6, amide (27.5%), 24 hours): crystals + liquid | Appearance after cooling - observation at 24 hours, except as noted [1, 4]: Translucent gel | Appearance after cooling - observation at 24 hours, except as noted [1, 5]: clear liquid | Appearance after cooling - observation at 24 hours, except as noted [1, 6]: clear liquid | Appearance after cooling - observation at 24 hours, except as noted [1, 7]: clear liquid
Molecule: CC(C)(C)CC(C)(C)NC(=O)C12CC3CC(CC(C3)C1)C2 [Compound C21, Methanone, (1,1-dimethyl-3,3-dimethylbutylaminyl) tricyclo[3.3.1.1^3,7]dec-1-yl-]

Appearance after cooling - observation at 24 hours, except as noted ([1]; Niacinamide (10%) in Glucam P-20 (90%), [S]/[L] 0.1, no tricyclodecaneamide, 24 hours): crystal + liquid | Appearance after cooling - observation at 24 hours, except as noted ([1]; Niacinamide (14.5%) in PPG425 (85.5%), [S]/[L] 0.2, no tricyclodecaneamide, observation at 12 hours): opaque solid
Molecule: NC(=O)c1cccnc1 [Niacinamide]
Log Po/w ([2]; solid cosmetic agents, Table 1): −0.37

Appearance after cooling - observation at 24 hours, except as noted [1, 9]: opaque solid | Appearance after cooling - observation at 24 hours, except as noted [1, 4]: crystal + liquid | Appearance after cooling - observation at 24 hours, except as noted [1, 10]: opaque solid | Appearance after cooling - observation at 24 hours, except as noted ([1]; Climbazole (16.6%) in OMC (50%), [S]/[L] 0.7, straight chain comparator (33.3%), 24 hours): crystal + liquid | Appearance after cooling - observation at 24 hours, except as noted [1, 11]: crystal + liquid
Molecule: CCCCCCCCCCCCCCCCCC(N)=O [octadecanamide, reference compound]

Appearance after cooling - observation at 24 hours, except as noted ([1]; Climbazole (10%) in Pelemol GTIS (90%), [S]/[L] 0.1, no tricyclodecaneamide, 24 hours): crystal + liquid | Appearance after cooling - observation at 24 hours, except as noted ([1]; Climbazole (30%) in OMC (70%), [S]/[L] 0.4, no tricyclodecaneamide, 24 hours): crystal + liquid | Appearance after cooling - observation at 24 hours, except as noted ([1]; Climbazole (40%) in PPG425 (60%), [S]/[L] 0.7, no tricyclodecaneamide, 24 hours): crystals + liquid
Molecule: CC(C)(C)C(=O)C(Oc1ccc(Cl)cc1)n1ccnc1 (stereo not shown) [Climbazole]
Log Po/w ([2]; solid cosmetic agents, Table 1): 3.49

Appearance after cooling - observation at 24 hours, except as noted ([1]; Avobenzone (45%) in OMC (27.5%), [S]/[L] 2, straight chain comparator (27.5%), 24 hours): crystals + liquid
Molecule: CCCCCCCCCCCCCC(=O)NC1CCCC(C)C1 (stereo not shown) [tetradecanoic acid (3 methyl-cyclohexyl)-amide, reference compound]

Appearance after cooling - observation at 24 hours, except as noted [1, 9]: opaque solid
Molecule: NC(=O)c1ccccc1C(N)=O [phthalamide, reference compound]

Appearance after cooling - observation at 24 hours, except as noted [1, 3]: clear liquid | Appearance after cooling - observation at 24 hours, except as noted [1, 9]: translucent gel | Appearance after cooling - observation at 24 hours, except as noted [1, 4]: Clear liquid | Appearance after cooling - observation at 24 hours, except as noted [1, 5]: clear liquid | Appearance after cooling - observation at 24 hours, except as noted [1, 6]: clear liquid | Appearance after cooling - observation at 24 hours, except as noted [1, 12]: clear liquid | Appearance after cooling - observation at 24 hours, except as noted [1, 7]: clear liquid
Molecule: O=C(N1CCCC2CCCCC21)C12CC3CC(CC(C3)C1)C2 (stereo not shown) [Compound C10, Methanone, (decahydroquinolinyl)tricyclo[3.3.1.1^3,7]dec-1-yl-]

Appearance after cooling - observation at 24 hours, except as noted ([1]; 2-HEU (24.9%) in OMC (75.1%), [S]/[L] 0.3, no tricyclodecaneamide, 24 hours): crystal + liquid
Molecule: NC(=O)NCCO [2-hydroxyethyl urea]
Log Po/w ([2]; solid cosmetic agents, Table 1): −0.86

Appearance after cooling - observation at 24 hours, except as noted ([1]; Cholesterol (16%) in OMC (84%), [S]/[L] 0.2, no tricyclodecaneamide, 24 hours): crystal + liquid | Appearance after cooling - observation at 24 hours, except as noted ([1]; Cholesterol (20%) in conjugated linoleic acid (80%), [S]/[L] 0.2, no tricyclodecaneamide, 24 hours): crystals + liquid | Appearance after cooling - observation at 24 hours, except as noted ([1]; Cholesterol (20%) in retinol proprionate (80%), [S]/[L] 0.3, no tricyclodecaneamide, observation at 12 hours): opaque solid
Molecule: CC(C)CCC[C@@H](C)[C@H]1CC[C@H]2[C@@H]3CC=C4C[C@@H](O)CC[C@]4(C)[C@H]3CC[C@]12C [cholesterol]
Log Po/w ([2]; solid cosmetic agents, Table 1): 9.62
